Measurements from patent US8193192B2, “Heterocyclic FXR binding compounds” (Phenex Pharmaceuticals AG, priority 2006, dated 2012).
In brackets after ≈: the same amount, converted by molar mass.

Key:
[1] = Aqueous solubility assay, Protocol B, shake-flask method; type: physicochemical; conditions: 10 mM PBS buffer with 1% MeOH, kinetic from dmso stock, 10 mM PBS buffer pH 7.4, 1% MeOH, room temperature, read-out: Aqueous solubility pH 7.4 (μM) (±standard deviation), shake-flask method
Method: Aqueous solubility of compounds was determined by nephelometry or by shake-flask method as follows:
Protocol B, Shake-Flask Method:
Sample preparation: Sample and standard solution preparation is performed by mixing equal volumes of acetonitrile containing the internal standard (1 μM final concentration) with sample and calibration standard solutions (100 μl). After vigorously shaking (10 seconds) the samples are centrifuged (6000 g) for 5 minutes at 20° C. Aliquots of the particle-free supernatants are transferred to 200 μl sample vials and subsequently subjected to LC-MS/MS analysis. Assay procedure: Test concentration was 100 μM in 10 mM PBS buffer pH 7.4 with a final MeOH concentration of 1%. The volume of the incubation solution was 500 μl. Depending on each compound's solubility in MeOH, the stock concentration and the incubation concentration was adapted. The test solutions in quadruplicates were shaken at 300 rpm over a 20 hours period at room temperature, followed by centrifugation at 20000 g for 30 minutes to separate the solid phase. 100 μl of particle free sample are added to 100 μl acetonitrile containing the internal standard. The aqueous solubility of the compounds was determined by measuring the concentration of the PBS buffer supernatant by HPLC-MS/MS. Aqueous solubilities of examples and reference compounds are listed below in Table 3.

[2] = Plasma protein binding assay, filtration method; type: in vitro ADME; conditions: lithium-heparin plasma, mouse plasma, 37° C., one hour, read-out: Plasma protein binding (%) (±standard deviation) (converted)
Method: Plasma Protein Binding Assay
Plasma protein binding was determined using the filtration method:
Preparation of standards: working solutions were prepared for each calibration level by appropriate dilution of the corresponding stock solution. Calibration standards were prepared by spiking 147 μl PBS buffer with 3 μl of the corresponding working solution. Sample preparation: The sample and standard solution preparation was performed by mixing equal volumes of acetonitrile containing the internal standard (1 μM) with 75 μl sample, or 150 μl calibration standard solution, respectively. After vigorously shaking the samples were centrifuged (6000 g) for 5 minutes. Aliquots of the supernatants were subjected to LC-MS/MS analysis. Assay procedure: Compound stock solutions were diluted in acetonitrile to give a 50-fold concentrated working solution. The incubation solutions were prepared by adding 3 μl of a 50-fold concentrated working solution in acetonitrile to 147 μl of lithium-heparin plasma from mice giving an incubation concentration of 1 μM. […] The percentage of compound bound to plasma proteins (% PPB) was calculated using the following equation: PPB[%]=100−(concentrationcompound plasma filtrate/mean concentrationcompound filtrated plasma filtrate)×100.
Applying this protocol, plasmaprotein binding of examples and reference compounds was determined as listed below in Table 5.

[3] = Determination of pharmacokinetic parameters in mice (oral cassette dosing); type: in vivo; conditions: C57BL/6 mice, po 5 mg/kg; for Vd: elimination phase; for CL: total body clearance; for Cmax / Tmax / AUC(0-inf) / concentration at 10 min / concentration at 30 min / concentration at 60 min / concentration at 120 min / concentration at 240 min / concentration at 480 min: male, mouse, plasma; for AUC(0-inf): extrapolated to infinity; for concentration at 10 min / concentration at 30 min / concentration at 60 min / concentration at 120 min / concentration at 240 min / concentration at 480 min: cassette, read-out: mean plasma conc.
Method: FIG. 1: Graphical depiction of pharmacokinetic data of compound A compared to example 3. Compound plasma concentrations (logarithmic scale) are plottet against sampling timepoints. Conditions: C57BL/6 mice, oral cassette dosing, 5 mg/Kg in 10% HPBCD/20 mM phosphate buffer.
Determination of Pharmacokinetic Parameters in Mice
Data on the rate and extent of absorption of the test compounds were generated. Compounds were applied perorally at 5 mg/kg each to male 8 weeks old C57BL/6 mice and plasma concentrations of the test items were determined by LC-MS/MS. A solution of […] of each test item was produced by diluting them in the vehicle, 10% HPBCD (hydroxypropyl-beta-cyclodextrin) in 20 mM phosphate buffer pH 7.0 (v/w). These solutions were stirred overnight at room temperature and heated to 60° C. for 10 minutes, resulting in a full solubilization. Then, an identical volume of each solution were mixed together to constitute the cassette. The application was performed by administrating the solution perorally to the mice, with an application volume of 10 ml/kg. […] Blood samples were obtained by sacrificing three animals for each time point (10, 30, 60, 120, 240, and 480 min) followed by cardiac puncture. Blood samples were treated with Li-heparin during collection procedure and stored on ice until centrifugation at 645 g (5 min, 4° C.). Plasma was harvested and kept at −20° C. until being assayed. To 50 μl of mouse plasma sample 6 μl acetonitrile containing an internal standard was added. Samples were vigorously shaken and centrifuged for 10 minutes at 6000 g and 20° C. An aliquot of the particle-free supernatant was transferred to 200 μl sampler vials and subsequently subjected to LC MS/MS for quantification.
Concentrations were plotted against sampling time for illustrating higher plasma levels of example 3 compared to plasma levels of compound A. The results are illustrated in FIG. 1.
PK calculation: The pharmacokinetic analysis of raw data was performed by applying a non-compartment model using the PK Solutions 2.0 software (Summit Research Services, Montrose, USA). All given parameters are model independent and were obtained by trapezoid area calculation and have the following meaning:
Cmax obs: maximal measured concentration;
tmax obs: time to reach the maximum measured concentration;
AUC0-∞: area under the concentration-time curve extrapolated to infinity;
Vd: volume of distribution during elimination phase;
CL: total body clearance.

solubility at 20 h [1] [µM] | fraction unbound at 1 h, 1 µM [2] | Vd [3] [L/kg] | CL [3] [L/h/kg] | Cmax [3] [µg/mL] | Tmax [3] [min] | AUC(0-inf) [3] [µg·h/mL] | concentration at 10 min [3] [µg/mL] | concentration at 30 min [3] [µg/mL] | concentration at 60 min [3] [µg/mL] | concentration at 120 min [3] [µg/mL] | concentration at 240 min [3] [µg/mL] | concentration at 480 min [3] [µg/mL] | Compound
72.4 (≈ 36.1 µg/mL) | 0.007 | 110.078 | 20.6 | 0.12 | 10 | 0.242 | 0.12 | 0.102 | 0.043 | 0.024 | 0.015 | 0.008 | CC(C)c1onc(-c2c(Cl)cccc2Cl)c1COc1ccc(Oc2ccc(C(=O)O)cc2)cc1 [Compound A, reference compound]
188 (≈ 96.5 µg/mL) | 0.021 | 9.271 | 3.54 | 0.904 | 10 | 1.41 | 0.904 | 0.867 | 0.291 | 0.214 | 0.063 | 0.02 | Cc1cc(OCc2c(-c3c(Cl)cccc3Cl)noc2C(C)C)cnc1Oc1ccc(C(=O)O)cc1 [Example 3, 4-(5-((3-(2,6-Dichlorophenyl)-5-isopropylisoxazol-4-yl)methoxy)-3-methylpyridin-2-yloxy)benzoic acid]
